The results in this text go back to patent US20070149487A1, “Antiviral Compositions and Methods” (priority 2005, published 2007).

pEC50: −log10 of the molar value. Bounds are passed on as bounds.

Data set [1] has as its system human SARS-CoV Toronto-2 strain. The class given is cell-based.

In general, pEC50 refers to −log10 of the EC50, conventionally taken in molar units. Read a low pEC50 as a high EC50. As usually defined, the CC50 is the concentration giving 50% cytotoxicity. Read a high CC50 as lower toxicity to the cells.

Turning to `O=C(NN=C1C(=O)Nc2ccccc21)NC1CCS(=O)(=O)C1` (racemic) [CS07], in data set [1], the pEC50 was less than 4.00 and the “Average Inhibition (%) at 32 μM” value is 1%. This molecule also had a CC50 with Vero E6 cells greater than 100 µM.
The corresponding values for `CN1CCc2c(sc3c2C(=O)NC(c2ccc(O)c(O)c2)N3)C1` (stereo not shown) [CS01] are less than 4.00, 0% and greater than 100 µM.
The corresponding values for `CS(=O)(=O)c1ccc2c(c1)nc(C(F)(F)F)n2C1CCNCC1` [CS02] are less than 4.00, 0% and greater than 100 µM.
The corresponding values for `NC(c1cc(C(F)(F)F)cc(C(F)(F)F)c1)c1cc(C(F)(F)F)cc(C(F)(F)F)c1` [CS03] are less than 4.00, 0% and greater than 100 µM.
Regarding `CC(=O)Nc1ccc(N2C(=O)CC(N3CC(C)OC(C)C3)C2=O)cc1` (stereo not shown) [CS04], in data set [1], the pEC50 is less than 4.00 and the “Average Inhibition (%) at 32 μM” value stood at 4%. The molecule further registered a cytotoxic concentration (CC50) in the data set with Vero E6 cells greater than 100 µM.
In the same order, the values of `CCN1C(=O)c2cccc3c(NC(=O)c4ccc([N+](=O)[O-])s4)ccc1c23` [CS05] are less than 4.00, 0% and 10 µM.
In the same order, the values of `CN1CCC(c2nc(-c3ccc(Cl)cc3)cc(C(F)(F)F)n2)CC1` [CS06] are less than 4.00, 0% and 95 µM.
With `CC(=O)Nc1ccc2c(c1)[C@H]1C=CC[C@@H]1[C@H](c1ccc([N+](=O)[O-])cc1)N2` [CS08], in data set [1], the pEC50 is less than 4.00 and the “Average Inhibition (%) at 32 μM” value is given as 17%. In addition, the CC50 in the data set on Vero E6 cells is greater than 100 µM.
In the same order, the values of `O=C(O)c1ccc(C2Nc3c(Cl)cc(Cl)c(Cl)c3C3C=CCC32)cc1` (stereo not shown) [CS09] are less than 4.00, 13% and 85 µM.
As to `N=C1C(=Cc2ccc3c(c2)OCO3)C(=O)C=C2SC(C(F)(F)F)=NN12` [CS10], in data set [1], the negative-log EC50 (pEC50) was less than 4.00 and the “Average Inhibition (%) at 32 μM” value amounted to 14%. Besides, the CC50 in the data set with Vero E6 cells was found to be 67 µM.
For `O=C(O)c1ccc(N=Cc2c(O)ccc3oc4c(c23)CCCC4)cc1` [CS11], in data set [1], the pEC50 is 4.64 and the “Average Inhibition (%) at 32 μM” value is recorded as 66%. The same molecule displayed a CC50 with Vero E6 cells of 76 µM. Further, in the data set on Vero E6 cells (at 23 μM), the “toxicity to normal cells in cell viability assays” value was “not toxic”.
As to `Cc1ccc([N+](=O)[O-])cc1N1C(=O)c2ccc(C(=O)O)cc2C1=O` [CS12], in data set [1], the pEC50 was less than 4.00 and the “Average Inhibition (%) at 32 μM” value amounted to 13%. In addition, in the data set on Vero E6 cells, the cytotoxic concentration (CC50) is greater than 100 µM.
